Structures can show the parent of a compound that is named as a salt.
Assays:
Assay type in all cases: binding
TIP-1 1/1 : LPAP (30L) = biological target: T1, TIP-1 1/1 : LPAP (30L) (Homo sapiens, UniProt O14907); assay: G assay with FDA approved drug (Example 7, TABLE 10A); details: OD in absence of drug 1.1; drug concentration per TABLE 11; read after 30 minutes
T1 construct: made in house; host or cells: E. coli (DH5alpha, BL21 or JM109)
Protocol: (§1) For certain of the PDZ proteins and PL proteins shown to bind together and for which Kd values had been obtained, additional testing was conducted to determine whether certain pharmaceutical compounds would act to antagonize or agonize the interactions. Assays were conducted as for the G′ assay described supra both in the presence and absence of test compound, except that 50 ul of a 10 uM solution of the biotinylated PL peptide is allowed to react with the surface bearing the PDZ-domain polypeptide instead of a 20 uM solution as specified in step (2) of the assay.
(§2) In both tables, the first column (left to right) entitled “PDZ domain” lists the gene name of GST-PDZ domain fusion (see TABLE 9). Entries having two numbers separated by a slash indicate which PDZ domain was utilized. For example, in TABLE 10A, the entry for ZO-3 is 1/3. This means that PDZ domain 1 of 3 was used.
(§3) The second column labeled “PL” indicates the name of the PDZ ligand (see TABLES 10A and 10B) interacting with the PDZ domain. The third column entitled “Drug” lists the common or trade name of pharmaceutical compound tested and found to modulate the specific PDZ-PL interaction (suppliers and chemical information are listed in TABLE 11). The final column with the heading “Change in OD” indicates the change in absorbance at 450 nm of the assay in the absence (first number) or presence (second number) of chemical compound.
(§4) Many FDA approved drugs have unknown mechanism of function. It is quite possible that some of these drugs function by disrupting or increasing PDZ/PL interactions. This possibility was examined by using the ‘G Assay’ (Example 3 section D). FDA approved drugs were incubated in the presence of the labeled peptide and compared to the same interaction without drug to determine if there was an effect on specific PDZ:PL interactions (drugs added with peptide at step 9 in Example 3D). The primary focus of this experiment was on drugs involved in treatment of depression (amitriptyline, desipramine, trimipramine, benztropine, and nortryptilline) and epilepsy (valproic acid). No modes of action are known for these drugs.
(§5) Therapeutic dose was determined by guidelines given in the Physician's Desk Reference and in the assay, 200 times this amount was used. If a dosage range was given, the upper end of the range was used. Each interaction listed in TABLES 10A & B was tested in the ‘G Assay’ (see Example 3) against each of the drugs listed in TABLE 11. The concentration of GST-fusion protein and peptide used in the assay represent the Kd and were determined by titration. These values can be found in TABLE 7. The drugs were added to the peptide before addition to the well containing the PDZ protein. Otherwise, the assay was carried out as described and read at 450 nm after 30 minutes of developing. For the sequences of the PDZs and PLs used in these tests, see TABLES 8 & 9.
(§6) List of interactions and therapeutics for which a modulation of binding was observed. Concentrations at which the GST-PDZ fusion protein and labeled peptide were used can be found in Table 7 or Table 12.

DVL2 : Presenilin (115L) = biological target: T2, DVL2 : Presenilin (115L) (Homo sapiens, UniProt O14641); assay: as above; details: OD in absence of drug 0.3; drug concentration per TABLE 11; read after 30 minutes
T2 construct: made in house; host or cells: E. coli (DH5alpha, BL21 or JM109)
T2 sequence (O14641 with tags, fused parts or gaps): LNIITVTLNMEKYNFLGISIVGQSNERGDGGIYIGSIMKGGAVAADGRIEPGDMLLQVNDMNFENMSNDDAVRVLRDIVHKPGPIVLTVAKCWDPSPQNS
Protocol: as §1, §2, §3, §4, §5, §6

AF6 : Presenilin (115L) = biological target: T3, AF6 : Presenilin (115L) (Homo sapiens, UniProt P55196); assay: as above
T3 construct: made in house; host or cells: E. coli (DH5alpha, BL21 or JM109)
T3 sequence (P55196 1001-1093): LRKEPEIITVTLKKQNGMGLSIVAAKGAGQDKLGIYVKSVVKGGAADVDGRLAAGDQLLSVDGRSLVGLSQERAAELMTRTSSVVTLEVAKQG
Protocol: as §1, §2, §3, §4, §5, §6

[1] = test system: hSyntenin : Presenilin (115L); assay: as above; details: OD in absence of drug 1.1; drug concentration per TABLE 11; read after 30 minutes
Protocol: as §1, §2, §3, §4, §5, §6

[2] = biological target: T4, ZO-3 1/3 : Presenilin (115L) (Homo sapiens, UniProt O95049); assay: as above; details: OD in absence of drug 1.2; drug concentration per TABLE 11; read after 30 minutes
T4 construct: the entry for ZO-3 is 1/3; This means that PDZ domain 1 of 3 was used; made in house; host or cells: E. coli (DH5alpha, BL21 or JM109)
T4 sequence (O95049 with tags, fused parts or gaps): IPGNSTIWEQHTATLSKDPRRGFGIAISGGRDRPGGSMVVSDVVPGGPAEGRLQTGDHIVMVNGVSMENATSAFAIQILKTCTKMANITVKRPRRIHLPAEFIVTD
Protocol: as §1, §2, §3, §4, §5, §6

[3] = biological target: T5, FLJ10324 : Presenilin 2 (117L) (Homo sapiens, UniProt Q96JH8); assay: as above; details: OD in absence of drug 0.4; drug concentration per TABLE 11; read after 30 minutes
T5 construct: made in house; host or cells: E. coli (DH5alpha, BL21 or JM109)
T5 sequence (Q96JH8 976-1061 limits assumed): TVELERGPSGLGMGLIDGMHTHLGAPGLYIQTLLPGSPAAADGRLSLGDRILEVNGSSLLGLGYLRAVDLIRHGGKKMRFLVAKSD
Protocol: as §1, §2, §3, §4, §5, §6

Atr-P (1/6) : DNAM (22L) = biological target: T6, Atr-P (1/6) : DNAM (22L) (Homo sapiens, UniProt Q86UL8); assay: G assay with FDA approved drug (Example 7, TABLE 10B); details: OD in absence of drug 4; drug concentration per TABLE 11; read after 30 minutes
T6 construct: made in house; host or cells: E. coli (DH5α, BL21 or JM109)
T6 sequence (Q86UL8 408-511): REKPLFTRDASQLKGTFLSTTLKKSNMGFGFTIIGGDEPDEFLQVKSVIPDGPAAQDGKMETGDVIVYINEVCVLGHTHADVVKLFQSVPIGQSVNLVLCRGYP
Protocol: as §1, §2, §3, §4, §5, §6

ZO-2 (1/3) : DNAM (22L) = biological target: T7, ZO-2 (1/3) : DNAM (22L) (Homo sapiens, UniProt Q9UDY2); assay: as above
T7 construct: made in house; host or cells: E. coli (DH5α, BL21 or JM109)
T7 sequence (Q9UDY2 27-122): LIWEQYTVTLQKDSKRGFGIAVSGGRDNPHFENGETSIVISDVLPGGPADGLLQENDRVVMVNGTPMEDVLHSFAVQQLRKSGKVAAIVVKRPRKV
Protocol: as §1, §2, §3, §4, §5, §6

BAI-1 (2/6) : DNAM (22L) = biological target: T8, BAI-1 (2/6) : DNAM (22L) (Homo sapiens, UniProt Q96QZ7); assay: as above; details: OD in absence of drug 4; drug concentration per TABLE 11; read after 30 minutes
T8 construct: made in house; host or cells: E. coli (DH5α, BL21 or JM109)
T8 sequence (Q96QZ7 463-566): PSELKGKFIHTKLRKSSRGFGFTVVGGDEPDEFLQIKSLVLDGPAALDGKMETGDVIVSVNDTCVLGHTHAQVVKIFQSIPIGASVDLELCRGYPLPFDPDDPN
Protocol: as §1, §2, §3, §4, §5, §6

[4] = biological target: T9, Par 3 3/3 : Presenilin 2 (117L) (Homo sapiens, UniProt Q8TEW0); assay: G assay with FDA approved drug (Example 7, TABLES 10A, 10B); details: OD in absence of drug 0.6; drug concentration per TABLE 11; read after 30 minutes
T9 construct: made in house; host or cells: E. coli (DH5alpha, BL21 or JM109)
T9 sequence (Q8TEW0 579-681): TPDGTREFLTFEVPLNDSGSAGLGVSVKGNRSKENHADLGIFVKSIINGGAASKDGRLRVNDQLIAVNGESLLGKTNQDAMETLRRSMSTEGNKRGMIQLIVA
Protocol: as §1, §2, §3, §4
as §5, with “For the sequences of the PDZs and PLs used in these tests, see TABLES 8 & 9.” left out

[5] = biological target: T10, Mupp-1 7/13 : Presenilin 2 (117L) (Homo sapiens, UniProt O75970); assay: as above; details: OD in absence of drug 0.5; drug concentration per TABLE 11; read after 30 minutes
T10 construct: Entries having two numbers separated by a slash indicate which PDZ domain was utilized; made in house; host or cells: E. coli (DH5alpha, BL21 or JM109)
T10 sequence (O75970 with tags, fused parts or gaps): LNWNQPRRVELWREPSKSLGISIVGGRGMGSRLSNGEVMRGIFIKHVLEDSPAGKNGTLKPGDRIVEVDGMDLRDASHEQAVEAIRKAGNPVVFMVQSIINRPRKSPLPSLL
Protocol: as §1, §2, §3, §4
as §5, with “For the sequences of the PDZs and PLs used in these tests, see TABLES 8 & 9.” left out

T1 sequence (O14907 14-116): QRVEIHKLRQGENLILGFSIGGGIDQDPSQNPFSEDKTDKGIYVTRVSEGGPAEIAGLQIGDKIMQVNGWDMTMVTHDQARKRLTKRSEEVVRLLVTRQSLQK

Row | Change in OD: absorbance at 450 nm in presence of drug (TIP-1 1/1 : LPAP (30L)) | Change in OD: absorbance at 450 nm in presence of drug (DVL2 : Presenilin (115L)) | agonist effect, binding relative to absence of drug (AF6 : Presenilin (115L); AF6 and presenilin-1) | Change in OD: absorbance at 450 nm in presence of drug (AF6 : Presenilin (115L); OD in absence of drug 0.4, drug concentration per TABLE 11, read after 30 minutes) | Change in OD: absorbance at 450 nm in presence of drug [2] | Change in OD: absorbance at 450 nm in presence of drug [3] | CHANGE IN OD: absorbance at 450 nm in presence of drug (Atr-P (1/6) : DNAM (22L)) | CHANGE IN OD: absorbance at 450 nm in presence of drug (ZO-2 (1/3) : DNAM (22L); OD in absence of drug 2.1, drug concentration per TABLE 11, read after 30 minutes) | antagonistic effect, binding relative to absence of drug (ZO-2 (1/3) : DNAM (22L); ZO-2 domain 1 and DNAM-1) | CHANGE IN OD: absorbance at 450 nm in presence of drug (BAI-1 (2/6) : DNAM (22L)) | Change in OD: absorbance at 450 nm in presence of drug [4] | Change in OD: absorbance at 450 nm in presence of drug [5] | Compound | Change in OD: absorbance at 450 nm in presence of drug [1]
1 | 1.1 to 1.6 | – | – | – | – | – | – | – | – | – | – | – | CN1[C@@H]2CC[C@H]1C[C@@H](OC(c1ccccc1)c1ccccc1)C2 [Benztropine, BENZTROPINE MESYLATE] | –
2 | – | 0.3 to 0.9 | 4.3 fold | 0.4 to 1.7 | 1.2 to 3.6 | – | – | – | – | – | – | – | CN(C)CCC=C1c2ccccc2CCc2ccccc21 [Amitriptyline, AMITRIPTYLINE HYDROCHLORIDE] | 1.1 to 2.7
3 | – | – | – | – | 1.2 to 3.3 | 0.4 to 0.8 | 4 to 1.5 | 2.1 to 0.5 | 4.2 fold | 4 to 1.8 | 0.6 to 2.1 | 0.5 to 1.0 | CNCCCN1c2ccccc2CCc2ccccc21 [Desipramine, DESIPRAMINE HYDROCHLORIDE] | 1.1 to 2.3
